The values that follow come from patent US20130158041A1, “Tyrosine Kinase Inhibitors” (priority 2010, published 2013).

The test deals with HGF-dependent scattering phenotype of HPAF-II cells. The test is described as follows: HPAF scatter assay. It is filed as cell-based. Particulars: Homo sapiens, 4 ng/ml HGF, 22 hrs, read-out: inhibitory activity (IC50), scattering phenotype. On the procedure: The ability of compounds to inhibit the HGF-dependent scattering phenotype of HPAF-II cells was measured using a modified version of the assay described by Chan et al. 2008 (Chan et al. J. Biomolec. Screening 2008; 13:847-854). Briefly, HPAF-II cells (ATCC #CRL1997) were plated in 50 uL DMEM (#11995)+10% FBS+P/S at a density of 3,000 cells/well in Costar black clear bottom 384-well plates [Product no. 3712] and incubated at 37° C. overnight. The next day, […] of serially diluted compound in DMSO was added to each well in the cell plate to give a nine-point 1:3 dilution series with final concentrations ranging from 20 uM to 3 nM. Cells were preincubated with compound at 37° C. for one hour. To stimulate the scattering phenotype, 10 uL of 24 ng/ml HGF (R&D Systems 294-HGN) was next added to each well, giving a final concentration of 4 ng/ml HGF. Cells were incubated with both compound and HGF at 37° C. for an additional 22 hrs. Control […] wells without compound treatment and control wells without HGF or compound were included on each plate. Next, to visualize the cells, each plate was washed in PBS 1×, fixed in ice cold methanol for 3 min at RT, washed in PBS 3×, stained with Hoechst (1:2500) in PBS/0.1% Triton for 15 min in the dark, and finally washed in PBS 4× before imaging on an INCell Analyzer 1000 (GE Healthcare). Individual cell by cell SOI internuclear distance information was exported and then processed using a Pipeline Pilot (Accelrys) protocol to calculate the percentage of scattered cells. The percent inhibition of the scattering phenotype was calculated relative to cells without compound treatment, plotted against the log of compound concentration and then fit to a four parameter logistic fit to obtain IC50 values.

With `CCCn1cnc(-c2cccc(Cc3nn(-c4cnn(CC)c4)ccc3=S)c2)n1` [Example 5, 1-(1-ethyl-1H-pyrazol-4-yl)-3-[3-(1-propyl-1H-1,2,4-triazol-3-yl)benzyl]pyridazin-4(1H)-thione], the 50% inhibitory concentration (IC50) was 15 to 550 nM.

Take `Cn1cc(-c2cnc3ccc(OCc4nn(-c5cnn(C)c5)ccc4=S)cc3c2)cn1` [Example 21, 1-(1-methyl-1H-pyrazol-4-yl)-3-({[3-(1-methyl-1H-pyrazol-4-yl)quinolin-6-yl]oxy}methyl)pyridazin-4(1H)-thione]: the concentration for half-maximal inhibition (IC50) was in the range of 15 to 550 nM. For `COCCOc1cnc(-c2cccc(Cc3nn(-c4cnn(C)c4)ccc3=S)c2)nc1` [Example 3, 3-{3-[5-(2-methoxyethoxy)pyrimidin-2-yl]benzyl}-1-(1-methyl-1H-pyrazol-4-yl)pyridazin-4(1H)-thione] the value was 15 to 550 nM; for `CCOc1cnc2ccc(OCc3nn(-c4cnn(C)c4)ccc3=S)cc2c1` [Example 19, 3-{[(3-Ethoxyquinolin-6-yl)oxy]methyl}-1-(1-methyl-1H-pyrazol-4-yl)pyridazin-4(1H)-thione], 15 to 550 nM. For `COCCOC(=O)Nc1cccc(Cc2nn(-c3cnn(C)c3)ccc2=S)c1` [Example 8, 2-methoxyethyl (3-{[1-(1-methyl-1H-pyrazol-4-yl)-4-thioxo-1,4-dihydropyridazin-3-yl]methyl}phenyl)carbamate] the value was 15 to 550 nM.
